Source: patent US12171821B2, “Toxoplasma gondii vaccine” (priority 2018, dated 2024)

How the values were obtained:
[1] = test system: T. gondii ME49 bradyzoites; test: Merozoite markers GRA11B/BRP1, immunofluorescence, infected cat intestinal monolayers; assay type: cell-based, Toxoplasma gondii; settings: 200 μM fatty acid, 5 days of infection
Procedure: FIGS. 6A-B. Quantification of merozoites in cat tissue culture. A) Cat intestinal organoids were disassociated by trypsin then grown as monolayers on glass slides. Slides were divided into three different groups: not supplemented with fatty acid, supplemented with 200 μM oleic acid or supplemented 200 μM linoleic acid. Monolayers were infected with T. gondii MEM bradyzoites purified from brains of chronic infected mice at a 1:10 MOI. Five days after infection, staining for GRA11B and BRP1 along with DAPI, allowed the percentage of vacuoles positive for GRA11B and BRP1out of the total vacuoles was determined. Total number of parasitophorous vacuoles were counted by positive DAPI staining and confirmed by morphology with DIC. At least 50 parasitophorous vacuoles were counted per replicate. Three biological replicates were counted and on average 35% of the total vacuoles were positive far both GRA11B and BRP1 in the linoleic acid supplemented monolayers. *p-value=0.0126 with N=3 by two-tailed unpaired t test. Straining for both BRP1 and GRA11B was used to ensure that merozoite stages were counted. […] BRP1 is a rhoptry protein that was initially found in bradyzoites; however, it is also expressed in merozoite. […]

asexual tachyzoite stage = settings: prior work (Shamseddin et al., 2015); cited from earlier work

CCCCC/C=C\C/C=C\CCCCCCCC(=O)O [linoleic acid]
parasites undergoing sexual development / merozoite stage markers GRA11B and BRP1 (staining) [1]: commonly seen only with linoleic acid supplementation
cytotoxicity for the asexual tachyzoite stage (asexual tachyzoite stage): cytotoxic
